# Assays:
# barnyardgrass = test: Test C pre-/postemergence herbicide test; assay type: in vivo, Echinochloa crus-galli
# Summary of the method: (§1)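 Pre- and postemergence greenhouse screen. Preemergence treatment went onto freshly planted seeds in loam–sand soil; postemergence treatment went onto plants 2 to 18 cm tall at the 1- to 4-leaf stage in sphagnum peat/vermiculite medium. Scoring at 13 to 15 days used a 0–100 control scale.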
# oat, wild = test: Test C pre-/postemergence herbicide test; assay type: in vivo, Avena fatua; settings: Postemergence
# Summary of the method: as §1
# pigweed = test: Test C pre-/postemergence herbicide test; assay type: in vivo, Amaranthus retroflexus
# Summary of the method: as §1
# corn = test: Test C pre-/postemergence herbicide test; assay type: in vivo, Zea mays
# Summary of the method: as §1
# rice = test: Test B flooded paddy test; assay type: in vivo, Oryza sativa; settings: Flood, scale of 0 to 100 where 0 is no effect and 100 is complete control
# Summary of the method: (§2)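 Scored visually 0–100 (0 no effect, 100 complete control) versus controls after 13 to 15 greenhouse days. Treatment: compound added to paddy water kept 3 cm above soil, on 2-leaf-stage plants.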
# morningglory = test: Test C pre-/postemergence herbicide test; assay type: in vivo, Ipomoea coccinea
# Summary of the method: as §1
# velvetleaf = test: Test C pre-/postemergence herbicide test; assay type: in vivo, Abutilon theophrasti
# Summary of the method: as §1
# waterhemp = test: Test C pre-/postemergence herbicide test; assay type: in vivo, Amaranthus rudis
# Summary of the method: as §1
# wheat (winter wheat) = test: Test C pre-/postemergence herbicide test; assay type: in vivo, Triticum aestivum
# Summary of the method: as §1
# oilseed rape = test: Test C pre-/postemergence herbicide test; assay type: in vivo, Brassica napus
# Summary of the method: as §1
# soybean = test: Test C pre-/postemergence herbicide test; assay type: in vivo, Glycine max
# Summary of the method: as §1
# ducksalad = test: Test B flooded paddy test; assay type: in vivo, Heteranthera limosa; settings: Flood, scale of 0 to 100 where 0 is no effect and 100 is complete control
# Summary of the method: as §2
# [1] = Postemergence, 31 g ai/ha, scale 0 (no effect) to 100 (complete control)
# [2] = Postemergence, 62 g ai/ha, scale 0 to 100 (0 no effect, 100 complete control)
# [3] = Postemergence, 125 g ai/ha, scale 0 to 100 (0 no effect, 100 complete control)
# [4] = Postemergence, 250 g ai/ha, scale 0 to 100 (0 no effect, 100 complete control)
# [5] = 125 g ai/ha, scale 0 to 100 (0 no effect, 100 complete control)
# [6] = 250 g ai/ha, scale 0 to 100 (0 no effect, 100 complete control)
# [7] = Postemergence, 31 g ai/ha, scale 0 to 100 (0 no effect, 100 complete control)
# [8] = Postemergence, 62 g ai/ha, scale 0 (no effect) to 100 (complete control)
# [9] = Preemergence, 31 g ai/ha, scale 0 to 100, 0 is no effect and 100 is complete control
# [10] = Preemergence, 125 g ai/ha, scale 0 to 100 (0 no effect, 100 complete control)
# [11] = Preemergence, 62 g ai/ha, scale 0 to 100 (0 no effect, 100 complete control)
compound,measurement,setting,value
Cc1c(F)cccc1NC(=O)C1C(=O)NCC1c1ccc(F)c(F)c1 (racemic) [Compound 106],"Plant response rating, Barnyardgrass",barnyardgrass; [1],0
same,"Plant response rating, Barnyardgrass",barnyardgrass; [2],0
same,"Plant response rating, Barnyardgrass",barnyardgrass; [3],0
same,"Plant response rating, Barnyardgrass",barnyardgrass; [4],30
same,"Plant response rating, Oat, Wild","oat, wild; 31 g ai/ha, scale 0 (no effect) to 100 (complete control)",0
same,"Plant response rating, Oat, Wild","oat, wild; 62 g ai/ha, scale 0 to 100 (0 no effect, 100 complete control)",0
same,"Plant response rating, Oat, Wild","oat, wild; [5]",0
same,"Plant response rating, Oat, Wild","oat, wild; [6]",0
same,"Plant response rating, Pigweed",pigweed; [1],0
same,"Plant response rating, Pigweed",pigweed; [2],0
same,"Plant response rating, Pigweed",pigweed; [3],5
same,"Plant response rating, Pigweed",pigweed; [4],30
same,"Plant response rating, Corn",corn; [1],0
same,"Plant response rating, Corn",corn; [2],0
same,"Plant response rating, Corn",corn; [3],0
same,"Plant response rating, Corn",corn; [4],0
same,"Plant response rating, Rice",rice; 1000 g ai/ha,15
same,"Plant response rating, Morningglory",morningglory; [1],0
same,"Plant response rating, Morningglory",morningglory; [2],5
same,"Plant response rating, Morningglory",morningglory; [3],10
same,"Plant response rating, Morningglory",morningglory; [4],5
same,"Plant response rating, Velvetleaf",velvetleaf; [1],0
same,"Plant response rating, Velvetleaf",velvetleaf; [2],0
same,"Plant response rating, Velvetleaf",velvetleaf; [3],5
same,"Plant response rating, Velvetleaf",velvetleaf; [4],5
same,"Plant response rating, Waterhemp",waterhemp; [1],0
same,"Plant response rating, Waterhemp",waterhemp; [2],0
same,"Plant response rating, Waterhemp",waterhemp; [3],10
same,"Plant response rating, Waterhemp",waterhemp; [4],20
same,"Plant response rating, Wheat",wheat (winter wheat); [1],0
same,"Plant response rating, Wheat",wheat (winter wheat); [2],0
same,"Plant response rating, Wheat",wheat (winter wheat); [3],0
same,"Plant response rating, Wheat",wheat (winter wheat); [4],0
same,"Plant response rating, Oilseed Rape",oilseed rape; [1],0
same,"Plant response rating, Oilseed Rape",oilseed rape; [2],0
same,"Plant response rating, Oilseed Rape",oilseed rape; [3],0
same,"Plant response rating, Oilseed Rape",oilseed rape; [4],0
same,"Plant response rating, Soybean",soybean; [1],0
same,"Plant response rating, Soybean",soybean; [2],0
same,"Plant response rating, Soybean",soybean; [3],5
same,"Plant response rating, Soybean",soybean; [4],5
same,"Plant response rating, Ducksalad",ducksalad; 1000 g ai/ha,90
O=C1NCC(c2ccc(C(F)(F)F)cc2)C1C(=O)Nc1cccc(F)c1F (racemic) [Compound 202],"Plant response rating, Barnyardgrass",barnyardgrass; [7],25
same,"Plant response rating, Barnyardgrass",barnyardgrass; [8],65
same,"Plant response rating, Barnyardgrass",barnyardgrass; [3],65
same,"Plant response rating, Barnyardgrass",barnyardgrass; [4],85
same,Barnyardgrass plant response rating,barnyardgrass; [9],90
same,"Plant response rating, Barnyardgrass","barnyardgrass; Preemergence, 62 g ai/ha, scale 0 to 100",90
same,"Plant response rating, Barnyardgrass",barnyardgrass; [10],95
same,"Plant response rating (scale of 0 to 100; 0 is no effect, 100 is complete control), Barnyardgrass","barnyardgrass; Preemergence, 250 g ai/ha",95
same,"Plant response rating, Oat, Wild","oat, wild; 31 g ai/ha, scale 0 to 100 (0 no effect, 100 complete control)",0
same,"Plant response rating, Oat, Wild","oat, wild; 62 g ai/ha, scale 0 (no effect) to 100 (complete control)",0
same,"Plant response rating, Oat, Wild","oat, wild; [5]",30
same,"Plant response rating, Oat, Wild","oat, wild; [6]",10
same,"Plant response rating, Pigweed",pigweed; [7],80
same,"Plant response rating, Pigweed",pigweed; [8],80
same,"Plant response rating, Pigweed",pigweed; [3],85
same,"Plant response rating, Pigweed",pigweed; [4],85
same,Pigweed plant response rating,pigweed; [9],85
same,Pigweed plant response rating,pigweed; [11],85
same,"Plant response rating, Pigweed",pigweed; [10],90
same,"Plant response rating (scale of 0 to 100), Pigweed","pigweed; Preemergence, 250 g ai/ha",100
same,"Plant response rating, Corn",corn; [7],0
same,"Plant response rating, Corn",corn; [8],0
same,"Plant response rating, Corn",corn; [3],10
same,"Plant response rating, Corn",corn; [4],35
same,Corn plant response rating,corn; [9],20
same,Corn plant response rating,corn; [11],85
same,"Plant response rating, Corn",corn; [10],75
same,"Plant response rating (scale of 0 to 100), Corn","corn; Preemergence, 250 g ai/ha",85
same,"Plant response rating, Rice",rice; 500 g ai/ha,15
same,"Plant response rating, Morningglory",morningglory; [7],5
same,"Plant response rating, Morningglory",morningglory; [8],10
same,"Plant response rating, Morningglory",morningglory; [3],70
same,"Plant response rating, Morningglory",morningglory; [4],10
same,Morningglory plant response rating,morningglory; [9],15
same,Morningglory plant response rating,morningglory; [11],25
same,"Plant response rating, Morningglory",morningglory; [10],25
same,"Plant response rating (scale of 0 to 100), Morningglory","morningglory; Preemergence, 250 g ai/ha",40
same,"Plant response rating, Velvetleaf",velvetleaf; [7],10
same,"Plant response rating, Velvetleaf",velvetleaf; [8],20
same,"Plant response rating, Velvetleaf",velvetleaf; [3],30
same,"Plant response rating, Velvetleaf",velvetleaf; [4],55
same,Velvetleaf plant response rating,velvetleaf; [9],10
same,Velvetleaf plant response rating,velvetleaf; [11],30
same,"Plant response rating, Velvetleaf",velvetleaf; [10],50
same,"Plant response rating (scale of 0 to 100), Velvetleaf","velvetleaf; Preemergence, 250 g ai/ha",65
same,"Plant response rating, Waterhemp",waterhemp; [7],60
same,"Plant response rating, Waterhemp",waterhemp; [8],65
same,"Plant response rating, Waterhemp",waterhemp; [3],75
same,"Plant response rating, Waterhemp",waterhemp; [4],85
same,Waterhemp plant response rating,waterhemp; [9],85
same,Waterhemp plant response rating,waterhemp; [11],95
same,"Plant response rating, Waterhemp",waterhemp; [10],100
same,"Plant response rating (scale of 0 to 100), Waterhemp","waterhemp; Preemergence, 250 g ai/ha",100
same,"Plant response rating, Wheat",wheat (winter wheat); [7],0
same,"Plant response rating, Wheat",wheat (winter wheat); [8],0
same,"Plant response rating, Wheat",wheat (winter wheat); [3],0
same,"Plant response rating, Wheat",wheat (winter wheat); [4],5
same,Wheat plant response rating,wheat (winter wheat); [9],0
same,Wheat plant response rating,wheat (winter wheat); [11],30
same,"Plant response rating, Wheat",wheat (winter wheat); [10],55
same,"Plant response rating (scale of 0 to 100), Wheat","wheat (winter wheat); Preemergence, 250 g ai/ha",60
same,"Plant response rating, Oilseed Rape",oilseed rape; [7],0
same,"Plant response rating, Oilseed Rape",oilseed rape; [8],0
same,"Plant response rating, Oilseed Rape",oilseed rape; [3],50
same,"Plant response rating, Oilseed Rape",oilseed rape; [4],50
same,Oilseed Rape plant response rating,oilseed rape; [9],25
same,Oilseed Rape plant response rating,oilseed rape; [11],80
same,"Plant response rating, Oilseed Rape",oilseed rape; [10],85
same,"Plant response rating (scale of 0 to 100), Oilseed Rape","oilseed rape; Preemergence, 250 g ai/ha",90
same,"Plant response rating, Soybean",soybean; [7],0
same,"Plant response rating, Soybean",soybean; [8],0
same,"Plant response rating, Soybean",soybean; [3],5
same,"Plant response rating, Soybean",soybean; [4],10
same,Soybean plant response rating,soybean; [9],0
same,Soybean plant response rating,soybean; [11],25
same,"Plant response rating, Soybean",soybean; [10],0
same,"Plant response rating (scale of 0 to 100), Soybean","soybean; Preemergence, 250 g ai/ha",10
same,"Plant response rating, Ducksalad",ducksalad; 500 g ai/ha,100

# From US10294202B2, “Pyrrolidinones as herbicides” (FMC Corporation, priority 2013, dated 2019)
